The subject of data set [1] is colon cancer SW480 cell line. Description: In vivo antitumor activity, colon cancer SW480 in nude mice (2), dose series. The conditions noted are these: 3 days, tumor weighed 24 hours after drug discontinuance.
A further data set has as its system normal mice. Description: Acute toxic effect of platinum complex on normal mice (LD50). The format is in vivo, Kunming mice. The conditions noted are these: single intravenous administration in 5% glucose, 14 days observation, Bliss method. As to the method:
Test 1: Acute Toxic Effect of Platinum Complex on Normal Mice
Embodiment platinum compound was dissolved with 5% glucose solution. […] Mortality and toxicity were observed after administration.

A further data set deals with lung cancer H292. Put plainly: MTT cytotoxicity, lung cancer H292. The format is cell-based. The conditions noted are these: n = 6. As to the method: (§1) The toxic action of Embodiment platinum containing compounds was observed on tumor cells by MTT colorimetric method. Several kinds of tumor cells in exponential growth phase were prepared into single cell suspension, inoculated on 96 pore plat at the density of 4×10^4/hole, cultivated for 24 hours to enable to adhere to wall with 1640 culture medium containing 10% fetal calf serum (complete medium) at 37° C.; the final culture volume was 100 μl. Cell morphology was observed after culture for 24 hours.

The next data set has as its system testis cell ST. Description: MTT cytotoxicity, testis cell ST. The conditions noted are these: n = 6. The format is cell-based. As to the method: as §1
Another data set deals with gastric cancer MGC803. Description: MTT cytotoxicity, gastric cancer MGC803. The format is cell-based. Particulars: n = 6. As to the method: as §1
For the next data set, the system named is esophagus cancer ECA109. Put plainly: MTT cytotoxicity, esophagus cancer ECA109. The format is cell-based. The conditions noted are these: n = 6. On the procedure:
as §1

In data set [2] the test system is lung cancer Lewis cell line. Description: In vivo antitumor activity, lung cancer Lewis in nude mice. The conditions noted are these: 15 mg/kg, every 2 days, 4 times, end 30 days after inoculation.
Data set [3] concerns Pulmonary epithelial cell BEAS-2B. Put plainly: MTT cytotoxicity, pulmonary epithelial cell BEAS-2B. The format is cell-based. The conditions noted are these: n = 6. As to the method: as §1
The subject of the next data set is lung cancer Lewis. Description: MTT cytotoxicity, lung cancer Lewis. The format is cell-based. Particulars: n = 6. On the procedure:
as §1

In the next data set the test system is colon cancer SW480. Description: MTT cytotoxicity, colon cancer SW480. The format is cell-based. Particulars: n = 6. As to the method: as §1
For data set [4], the system named is colon cancer SW480 cell line. Put plainly: In vivo antitumor activity, colon cancer SW480 in nude mice (1). Particulars: SW480, 4 mg/kg, every other day, 4 times, tumor weighed after 10 days. From the text: The calculation formula of tumor inhabitation rate is: […]
Data set [5] has as its system lung cancer H292 cell line. Put plainly: In vivo antitumor activity, lung cancer H292 in nude mice. The conditions noted are these: H292, 15 mg/kg, every 2 days, 4 times, end 30 days after inoculation.
A further data set is described as follows: Solubility in water. Particulars: in water.

The results in this text go back to patent publication US9138421B2, “Platinum compounds for treating cell proliferative diseases, preparation method and use thereof” (priority 2011, dated 2015).

Marks after values point to notes of the source that are not given here.

For orientation: IC50 means the point on the concentration scale where inhibition reaches its midpoint. In general, solubility refers to the dissolved amount per volume that the medium holds. A higher solubility goes with much dissolved substance.

Consider `N.N.[Cl][Pt][Cl]` [cisplatin, Cis-dichlorodiamminoplatinum, reference compound], for which the “tumor inhibition rate (%) (x ±SD)” value in data set [1] (SW480, 3 mg/kg) is 62.9 ± 9.01%; in data set [1] (SW480, 5 mg/kg) it was 71.1 ± 10.76%.

Regarding “[2-(2-dimethylamine ethyl)-malonato].[cis-trans-1,2-diaminomethylcyclobutane]platinum (II) phosphate [compound 25]”, the LD50 value with normal mice came out at 0.520 mmol/kg. The IC50 in the data set on lung cancer H292 turned out to be 53 µM; in the data set on testis cell ST, 114 µM; in the data set with gastric cancer MGC803, 341 µM; with esophagus cancer ECA109, 196 µM. For the same compound, the “tumor inhibition rate (%)” value in data set [2] came out at 80.1 ± 9.65 %.

Consider “[2-(2-diethylamine ethyl)-malonato].[cis-1,3-(2,2-(4-oxacyclohexyl))-propyldiamine]platinum (II) phosphate [compound 28]”, for which, in the data set on normal mice, the LD50 value amounted to 0.767 mmol/kg. For the same compound, the IC50 with lung cancer H292 was 99 µM; in the data set on testis cell ST, 138 µM; in the data set on gastric cancer MGC803 it was 162 µM; in the data set on esophagus cancer ECA109 it was 256 µM. Moreover, the “tumor inhibition rate (%)” value in data set [2] is reported as 73.3 ± 17.92%.

As to “[2-(3-di-n-propylamine propyl)-malonato].[cis-diamine] platinum (II) mesylate [compound 8]”, in the data set with normal mice, the LD50 value is 0.806 mmol/kg. The IC50 with lung cancer H292 was 201 µM; in [3], 49 µM; with lung cancer Lewis it was 57 µM; with colon cancer SW480, 20 µM. Besides, the “tumor inhibition rate (%) (x ±SD)” value in data set [4] was 29.7 ± 8.81 %; in data set [1] (SW480, 3 mg/kg) it was 40.4 ± 5.02 %; in [1] (SW480, 5 mg/kg), 73.6 ± 9.18%; in [1] (SW480, 10 mg/kg), 74.4 ± 12.25%; in data set [1] (SW480, 15 mg/kg), 82.8 ± 10.07 %.

For the compound “2-(2-diethylamine ethyl)-malonic.cis-1,4-(trans-2,3-cyclobutyl)-butanediamine platinum (II) phosphate [compound 26]”, the IC50 was found to be 136 µM in the data set on lung cancer H292, 312 µM in the data set with testis cell ST, 234 µM in the data set on gastric cancer MGC803 and 163 µM with esophagus cancer ECA109. Further, the “tumor inhibition rate (%)” value in [2] is 72.4 ± 16.78%.

For “[2-(2-amino ethyl)-malonato].[cis-(1,2-trans-cyclohexamethylene diamine)]platinum (II) phosphate [compound 9]”, the LD50 value with normal mice is given as 0.724 mmol/kg. In addition, the IC50 was 63 µM in the data set with lung cancer H292, 57 µM in data set [3], 69 µM in the data set with lung cancer Lewis and 71 µM with colon cancer SW480. In addition, the “tumor inhibition rate (%)” value in [5] is 79.2 ± 14.99 %. In “Solubility in water”, the solubility came to 275 mg/mL.

Take `CCCN(CCC)CCC1C(=O)[O][Pt]([NH2])([NH2])[O]C1=O.O=P(O)(O)O` [compound 7, 2-(2-di-n-propylamineethyl)-malonic-cis-diamino platinum (II) phosphate]: the IC50 with lung cancer H292 is 124 µM; in data set [3], 75 µM; with lung cancer Lewis, 128 µM; in the data set with colon cancer SW480, 51 µM. For the same compound, in data set [4], the “tumor inhibition rate (%) (x ±SD)” value is recorded as 28.5 ± 7.65 %.

In the data set with normal mice, `CCN(CC)CCC1C(=O)[O][Pt]2([NH]C3CCC(CC3)[NH]2)[O]C1=O.O=P(O)(O)O` (stereo not drawn) [compound 27, [2-(2-diethylamine ethyl)-malonato].[cis-1,4-cyclohexyldiamine] platinum (II) phosphate] yielded an LD50 value of 0.729 mmol/kg. The IC50 with lung cancer H292 turned out to be 158 µM; in the data set with testis cell ST it was 360 µM; in the data set on gastric cancer MGC803, 453 µM; in the data set with esophagus cancer ECA109, 350 µM. Further, the “tumor inhibition rate (%)” value in [2] is on record as 71.3 ± 10.54%. The compound further yielded a solubility in “Solubility in water” of 145 mg/mL.

In the data set on normal mice, “[2-(2-ethylamine ethyl)-malonato].[cis-(1,2-trans-cyclohexamethylene diamine)]platinum (II) phosphate [compound 12]” showed an LD50 value of 0.609 mmol/kg. Moreover, the IC50 in the data set on lung cancer H292 is 241 µM; in data set [3] it was 15 µM; in the data set on lung cancer Lewis, 57 µM; with colon cancer SW480, 203 µM. The “tumor inhibition rate (%)” value in data set [5] is given as 76.3 ± 20.67*^ %. This compound had a solubility in the data set “Solubility in water” of 221 mg/mL.
